The numbers were not newly measured in article PMC4937428, “The Next Generation Non-competitive Active Polyester Nanosystems for Transferrin Receptor-mediated Peroral Transport Utilizing Gambogic Acid as a Ligand” (Scientific Reports, 2016), which cites them from elsewhere.

Details of this data set: method as in PMID 16918721. The conditions noted are these: described in the literature.

As to `CC(C)=CCC[C@]1(C)C=Cc2c(O)c3c(c(CC=C(C)C)c2O1)O[C@]12C(=C[C@@H]4C[C@H]1C(C)(C)O[C@@]2(C/C=C(/C)C(=O)O)C4=O)C3=O` [GA, gambogic acid], the Established safe dose is 60 mg/kg.
